Measurements as given in patent publication US5602106A, “16-membered macrolide derivatives” (priority 1993, dated 1997).
In brackets after ≈: the same amount, converted by molar mass. Entries after “also recorded” stand apart in the source; their conditions may differ. Read-outs that look alike come from different tables or passages of the source.

Legend:
[1] = test system: certain bacteria, for example, a species of acid-fast bacteria; settings: Chemistry Letters, 769 (1977); cited from earlier work
[2] = test system: clinically important Gram-positive bacteria; test: Antimicrobial activity / growth inhibition; format: cell-based
Outline: (§1)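 Staphylococci were seed-cultured in sensitivity test broth, while Branhamella and Haemophilus were grown on blood agar plates. Suspensions of about 10^6 CFU/ml were spotted (5 μl) onto sensitivity disk agar containing 5% horse blood, incubated at 37° C. for 20 hours, and the MIC was then read.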

Streptococcus pneumoniae = test: Antimicrobial activity in vitro; format: cell-based; settings: compared with MDM and LM-A7
Description: (§2) The effect of the first aspect of the present invention resides in the creation of a novel and useful 16-membered macrolide derivative. Antimicrobial activities of the compounds of the present invention were determined by measuring minimum inhibitory concentration (MIC). Minimum inhibitory concentration was determined by the agar plate dilution method in the following manner.
(§3) Test strains were subjected to seed culture using Sensitivity test broth (STB, Nissui Pharmaceutical) except that the strains belonging to the genus Streptococcus, Branhamella and Haemophilus were cultured on blood agar plate. A 5 μl portion of cell suspension of the test strains having about 10^6 CFU/ml was inoculated into Sensitivity disk agar (SDA, Nissui Pharmaceutical) supplemented with 5% horse blood and incubated at 37° C. for 20 hours. Then, MIC was measured. […] Antimicrobial activities in vitro of the compounds (1) and (2) are shown in Table 1, and those of the compounds (3) and (4) in Table 3.

Branhamella catarrhalis = test: Antimicrobial activity in vitro; format: cell-based; settings: vs clarithromycin
Description: as §2, §3

Enterococcus feacalis = test: Antimicrobial activity in vitro; format: cell-based; settings: vs clarithromycin
Description: as §2, §3

Haemophilus influenzae = test: Antimicrobial activity in vitro; format: cell-based; settings: vs clarithromycin
Description: as §2, §3

[3] = test system: drug-resistant strain of Staphylococcus; test: Antimicrobial activity in vitro; format: cell-based; settings: vs clarithromycin
Description: as §2, §3

M. luteus ATCC9341 = test: MIC, agar plate dilution method; format: cell-based; settings: Micrococcus luteus, ATCC9341; 37° C., 20 hours, SDA with 5% horse blood; read-out: Antimicrobial activity (MIC)
Outline: as §1

S. aureus 209P JC-1 = test: MIC, agar plate dilution method; format: cell-based; settings: for MIC: Staphylococcus aureus, 209P, 20 h
Outline: as §1

E. faecalis W-73 = test: MIC, agar plate dilution method; format: cell-based; settings: Enterococcus faecalis, W73, 20 h, read-out: Antimicrobial activity (MIC)
Outline: as §1

S. aureus MS15009/pMS98 = test: MIC, agar plate dilution method; format: cell-based; settings: for MIC: Staphylococcus aureus, MS15009/PMS98, 20 h, read-out: Antimicrobial activity (MIC), 37° C., 20 hours, SDA with 5% horse blood
Outline: (§4)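 Minimum inhibitory concentration by agar plate dilution on disk agar with 5% horse blood; 5 μl of roughly 10^6 CFU/ml inoculated, 37° C. for 20 h.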

S. pneumoniae IP692 = test: MIC, agar plate dilution method; format: cell-based; settings: for MIC: Streptococcus pneumoniae, IP692, 20 h
Outline: (§5)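 MIC by agar plate dilution: ~10^6 CFU/ml inocula (5 μl spots) on Sensitivity disk agar with 5% horse blood, 37 °C for 20 h. Seed cultures grown in Sensitivity test broth, except Streptococcus, Branhamella and Haemophilus, which were precultured on blood agar.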

S. aureus MS15027 = test: MIC, agar plate dilution method; format: cell-based; settings: Staphylococcus aureus, MS15027, 20 h, read-out: Antimicrobial activity (MIC), 37° C., 20 hours, SDA with 5% horse blood
Outline: as §1

B. catarrhalis W-0506 = test: MIC, agar plate dilution method; format: cell-based; settings: Moraxella catarrhalis, W0506; 37° C., 20 hours, SDA with 5% horse blood; read-out: Antimicrobial activity (MIC)
Outline: as §1

H. influenzae Type b = test: MIC, agar plate dilution method; format: cell-based; settings: for MIC: Haemophilus influenzae, 20 h, read-out: Antimicrobial activity (MIC), 37° C., 20 hours, SDA with 5% horse blood
Outline: as §1

S. epidermidis ATCC14990 = test: MIC, agar plate dilution method; format: cell-based; settings: Staphylococcus epidermidis, ATCC14990, 20 h, read-out: Antimicrobial activity (MIC), 37° C., 20 hours, SDA with 5% horse blood
Outline: as §1

B. catarrhalis W-0500 = test: MIC, agar plate dilution method; format: cell-based; settings: Moraxella catarrhalis, W0500, 20 h, read-out: Antimicrobial activity (MIC), 37° C., 20 hours, SDA with 5% horse blood
Outline: as §1

S. aureus MS15009/pMS99 = test: MIC, agar plate dilution method; format: cell-based; settings: Staphylococcus aureus, MS15009/PMS99, 20 h, read-out: Antimicrobial activity (MIC)
Outline: as §4

K. pneumoniae PCI602 = test: MIC, agar plate dilution method; format: cell-based; settings: Klebsiella pneumoniae, PCI602, 20 h, 37° C., SDA with 5% horse blood, read-out: Antimicrobial activity (MIC)
Outline: as §1

S. aureus MS15026 = test: MIC, agar plate dilution method; format: cell-based; settings: Staphylococcus aureus, 37° C., 20 hours, SDA with 5% horse blood, read-out: Antimicrobial activity (MIC)
Outline: as §1

S. aureus M126 = test: MIC, agar plate dilution method; format: cell-based; settings: Staphylococcus aureus, 37° C., 20 hours, SDA with 5% horse blood, read-out: Antimicrobial activity (MIC)
Outline: as §1

S. aureus M133 = test: MIC, agar plate dilution method; format: cell-based; settings: for MIC: Staphylococcus aureus, M133, 20 h, read-out: Antimicrobial activity (MIC), 37° C., 20 hours, SDA with 5% horse blood
Outline: as §1

S. pneumoniae Type 1 = test: MIC, agar plate dilution method; format: cell-based; settings: for MIC: Streptococcus pneumoniae
Outline: as §5

test strains = test: Antimicrobial activity in vitro, test strains overall; format: cell-based
Outline: as §1

[4] = test system: Streptococcus pneumoniae DP-1 Type 1; test: Infection-treating test in mice; format: in vivo
Source text: The compounds represented by the formula (I) exert excellent in vivo effects in infection-treating tests in mice in comparison with the case of currently known 16-membered macrolide antimicrobial agents. […] Such an excellent effect is related not to the ester bonding of the tertiary hydroxyl group at the 3"-position with an acyl group but directly to its ether bonding with a methyl group. […] In this connection, it has been reported that an isovaleryl group linked to a hydroxyl group at the 4"-position cannot easily be cleaved in rat blood plasma when compared with a propionyl group [Yakugaku Zasshi, 102(8), 781 (1982)].

[5] = literature; cited from earlier work
E. coli NIHJ JC-2 = test: MIC, agar plate dilution method; format: cell-based; settings: Escherichia coli, NIHJJC2, 20 h, 37° C., SDA with 5% horse blood, read-out: Antimicrobial activity (MIC)
Outline: as §5

S. pyogenes Cook = test: MIC, agar plate dilution method; format: cell-based; settings: Streptococcus pyogenes
Outline: as §5

H. influenzae 9334 = test: MIC, agar plate dilution method; format: cell-based
Outline: as §1

B. catarrhalis W-0400 = test: MIC, agar plate dilution method; format: cell-based; settings: Moraxella catarrhalis, W0400, 20 h, read-out: Antimicrobial activity (MIC)
Outline: as §4

[6] = 37° C., 20 hours, SDA with 5% horse blood, read-out: Antimicrobial activity (MIC)
[7] = 37° C., 20 hours, SDA with 5% horse blood
[8] = read-out: Antimicrobial activity (MIC), 37° C., 20 hours, SDA with 5% horse blood

CO[C@@H]1[C@@H](O[C@@H]2O[C@H](C)[C@@H](O[C@H]3C[C@@](C)(OC)[C@@H](OC(=O)CC(C)C)[C@H](C)O3)[C@H](N(C)C)[C@H]2O)[C@@H](CC=O)C[C@@H](C)C(=O)/C=C/C=C/C[C@@H](C)OC(=O)C[C@H]1OC(C)=O [3"-O-methylcarbomycin B]
antimicrobial activity compared with carbomycin B [1]: higher antimicrobial activity than carbomycin B

CCC(=O)O[C@H]1[C@H](C)O[C@@H](O[C@H]2[C@H](N(C)C)[C@@H](O)[C@H](O[C@H]3[C@@H](CC=O)C[C@@H](C)[C@@H](O)/C=C/C=C/C[C@@H](C)OC(=O)C[C@@H](O)[C@@H]3OC)O[C@@H]2C)C[C@@]1(C)OC [(2), 3"-O-methylleucomycin A7]
antimicrobial activities (in words) [2]: strong antimicrobial activities | antimicrobial activity against Streptococcus pneumoniae (Streptococcus pneumoniae): considerably improved antimicrobial activity | antimicrobial activity compared with clarithromycin (Branhamella catarrhalis): inferior to that of clarithromycin | antimicrobial activity compared with clarithromycin (Enterococcus feacalis): comparable or slightly superior activities | antimicrobial activity compared with clarithromycin (Haemophilus influenzae): comparable or slightly superior activities | antimicrobial activity compared with clarithromycin [3]: definitely superior antimicrobial activity | MIC (M. luteus ATCC9341): < 0.025 mg/L | MIC (S. aureus 209P JC-1; [6]): 0.1 mg/L (≈ 0.13 µM) | MIC (E. faecalis W-73): 0.39 mg/L (≈ 0.505 µM) | MIC (S. aureus MS15009/pMS98): 0.2 mg/L (≈ 0.259 µM) | MIC (S. pneumoniae IP692; [6]): < 0.025 mg/L | MIC (S. aureus MS15027): 0.2 mg/L (≈ 0.259 µM) | MIC (B. catarrhalis W-0506): 0.78 mg/L (≈ 1.01 µM) | MIC (H. influenzae Type b): 6.25 mg/L (≈ 8.1 µM) | MIC (S. epidermidis ATCC14990): 0.2 mg/L (≈ 0.259 µM) | MIC (B. catarrhalis W-0500): 0.39 mg/L (≈ 0.505 µM) | MIC (S. aureus MS15009/pMS99): > 100 mg/L | MIC (K. pneumoniae PCI602): > 100 mg/L | MIC (S. aureus MS15026): > 100 mg/L | MIC (S. aureus M126): > 100 mg/L | MIC (S. aureus M133): 0.2 mg/L (≈ 0.259 µM) | MIC (S. pneumoniae Type 1; TYPE1, 37° C., 20 hours, SDA with 5% horse blood, read-out: Antimicrobial activity (MIC)): 0.05 mg/L (≈ 0.0648 µM) | antimicrobial activities in vitro compared with corresponding compounds having free 3"-hydroxyl (MDM, LM-A7) (test strains; against most of test strains): twice as high | antimicrobial activities in comparison with rokitamycin (test strains; vs rokitamycin): generally excellent except for a Gram-negative bacterium (Branhamella catarrhalis); also recorded: slightly superior to those of rokitamycin

CCC(=O)O[C@@H]1CC(=O)O[C@H](C)C/C=C/C=C/[C@H](OC(C)=O)[C@H](C)C[C@H](CC=O)[C@H](O[C@@H]2O[C@H](C)[C@@H](O[C@H]3C[C@@](C)(OC)[C@@H](OC(=O)CC)[C@H](C)O3)[C@H](N(C)C)[C@H]2O)[C@H]1OC [(5), 9-O-acetyl-3"-O-methylmidecamycin A1]
amount giving a coordinate infection-treating effect relative to miokamycin ([4]; fraction of miokamycin amount): 1/4 | amount giving a coordinate infection-treating effect relative to rokitamycin ([4]; fraction of rokitamycin amount): 1/8 | antimicrobial activities compared with starting materials (1), (2) and (33) (test strains; 9-O-acylated vs free 9-hydroxyl): strong antimicrobial activities by themselves though slightly lower than those of their starting materials | antimicrobial activities in vitro compared with miokamycin (test strains; vs miokamycin (MOM)): comparable to or higher

CCCC(=O)O[C@H]1[C@H](C)O[C@@H](O[C@H]2[C@H](N(C)C)[C@@H](O)[C@H](O[C@H]3[C@@H](CC=O)C[C@@H](C)[C@@H](O)/C=C/C=C/C[C@@H](C)OC(=O)C[C@@H](O)[C@@H]3OC)O[C@@H]2C)C[C@@]1(C)OC(=O)CC [RKM, rokitamycin, reference compound]
metabolism and loss of antimicrobial activity after oral administration [5]: an acyl group of a neutral sugar moiety of the administered drug is cleaved with time and antimicrobial activities of the drug itself therefore is reduced gradually | MIC (M. luteus ATCC9341): 0.05 mg/L (≈ 0.0604 µM) | MIC (E. coli NIHJ JC-2): > 100 mg/L | Antimicrobial activity (MIC) (S. aureus 209P JC-1; [7]): 0.20 mg/L | MIC (S. aureus 209P JC-1; [8]): 0.1 mg/L (≈ 0.121 µM) | MIC (S. pyogenes Cook; 20 h, read-out: Antimicrobial activity (MIC), 37° C., 20 hours, SDA with 5% horse blood): 0.2 mg/L (≈ 0.242 µM) | MIC (S. pyogenes Cook; [6]): 0.05 mg/L (≈ 0.0604 µM) | MIC (H. influenzae 9334; Haemophilus influenzae, 9334, 20 h, read-out: Antimicrobial activity (MIC), 37° C., 20 hours, SDA with 5% horse blood): 6.25 mg/L (≈ 7.55 µM) | MIC (H. influenzae 9334; Haemophilus influenzae, 9334, 37° C., 20 hours, SDA with 5% horse blood, read-out: Antimicrobial activity (MIC)): 1.56 mg/L (≈ 1.88 µM) | MIC (E. faecalis W-73; [7]): 1.56 mg/L (≈ 1.88 µM) | MIC (E. faecalis W-73): 0.39 mg/L (≈ 0.471 µM) | Antimicrobial activity (MIC) (S. aureus MS15009/pMS98; [7]): 0.78 mg/L | MIC (S. aureus MS15009/pMS98): 0.39 mg/L (≈ 0.471 µM) | Antimicrobial activity (MIC) (S. pneumoniae IP692; [7]): 0.20 mg/L | MIC (S. pneumoniae IP692; [8]): 0.1 mg/L (≈ 0.121 µM) | MIC (S. aureus MS15027): 0.78 mg/L (≈ 0.942 µM) | MIC (B. catarrhalis W-0400): 0.39 mg/L (≈ 0.471 µM) | Antimicrobial activity (MIC) (H. influenzae Type b; [7]): 12.5 mg/L | MIC (H. influenzae Type b): 6.25 mg/L (≈ 7.55 µM) | MIC (S. epidermidis ATCC14990): 0.78 mg/L (≈ 0.942 µM) | MIC (S. aureus MS15009/pMS99): > 100 mg/L | MIC (K. pneumoniae PCI602): > 100 mg/L | MIC (S. aureus MS15026): > 100 mg/L | MIC (S. aureus M126): > 100 mg/L | Antimicrobial activity (MIC) (S. aureus M133; [7]): 0.78 mg/L | MIC (S. aureus M133): 0.39 mg/L (≈ 0.471 µM) | Antimicrobial activity (MIC) (S. pneumoniae Type 1; [7]): 0.20 mg/L | MIC (S. pneumoniae Type 1; TYPE1, 20 h, read-out: Antimicrobial activity (MIC), 37° C., 20 hours, SDA with 5% horse blood): 0.1 mg/L (≈ 0.121 µM)
